From patent publication US12599674B2, “Conjugates, their compositions, and their related methods” (THE ADMINISTRATORS OF THE TULANE EDUCATIONAL FUND, priority 2021, dated 2026)
Entries after “also recorded” stand apart in the source; their conditions may differ.

Key:
[1] = system: human gastric tumor SGC-7901 cells; assay: Xenograft mouse model, SGC-7901 tumor growth; type: in vivo, BALB/c nude mice; settings: tail vein; 100 μl containing 0.4 mg of AP-3 on days 0 and 14; nude mice; compared to controls
Protocol: Female BALB/c nude mice aged at 4-6 weeks-old were purchased (Tyercan, Ltd, Shenzhen) and reared in the laboratory animal facility for one week to adapt to the new environment. A total of 5×10^6 human gastric tumor SGC-7901 cells (200 μl) were inoculated into the right flank of each mouse by subcutaneous injection. When the tumor sizes reached 100-300 mm^3 (tumor volume=0.5×Length×Width^2), tumor-carrying mice in the experimental group were given (via tail vein injection) a first dose (at day zero) of 100 μl of AP3-HSA 200 mg/kg and a second dose (at day 14) of 150 mg/kg. A control group was injected with 100 μl of AP-3 containing 0.4 mg of AP-3 on days 0 and 14 in a similar fashion. 100 μl of normal saline was injected via the tail vein in a second control group on the same days. Tumor volumes were measured and mouse bodies were weighed twice a week since the first administration.

[2] = Body weights in U-937 xenograft study; type: in vivo; settings: U-937 xenograft SCID mice, tail vein AP3 0.5 mg/kg days 0 and 15 (FIG. 11 legend)
Protocol: Female SCID mice (Tyercan, Ltd, Shenzhen) aged at 4-6 weeks-old were purchased and reared in the laboratory animal facility for one week to adapt to the new environment. A total of 5×10^6 human U-937 lymphoma tumor cells (200 μl) were inoculated into the right flank of each mouse by subcutaneous injection. […] […] 100 μl of normal saline was injected via the tail vein in a second control group on the same days. Tumor volumes were measured and mouse bodies were weighed twice a week since the first administration.

## COc1cc2cc(c1Cl)N(C)C(=O)C[C@H](OC(=O)C(C)C)[C@]1(C)O[C@@H]1[C@H](C)[C@@H]1C[C@@](O)(NC(=O)O1)[C@H](OC)/C=C/C=C(\C)C2 [AP3, Ansamitocin P3]
[1]
  effect on growth of SGC-7901 tumors: only marginally effective
[2]
  recovery of body weights after treatment: returned to normal about a week after the final injections
[2]; 0.5 mg/kg
  effect on body weights: decreases in body weight; also recorded: weight losses
